Literature values in article PMC12562379, “Facile Synthesis of N-vinylindoles via Knoevenagel Condensation: Molecular Features and Biological Activities” (International Journal of Molecular Sciences, 2025).

Design: method as in PMID 29925826
Conditions: NH-acid; cited from earlier work

Structure (SMILES): c1ccc2[nH]nnc2c1 [1H-benzotriazole]
- pKa: 8.2
